Experimental findings from publication PMC10786919, “Design-rules for stapled peptides with in vivo activity and their application to Mdm2/X antagonists” (Nature Communications, 2024) are described below.

≈ marks a conversion by molar mass, not a printed value. Like-named read-outs stand apart in the source and are kept apart here. Positions of bridges follow the written chain, without caps; N, C: chain ends. Non-standard residues stand in square brackets, D forms with d. Residues, ends and D or L forms follow the SMILES beside them. Lys(N3) = [N-]=[N+]=NCCCC[C@H](N)C(=O)O; hArg = N=C(N)NCCCC[C@H](N)C(=O)O; R8 = C=CCCCCCC[C@@](C)(N)C(=O)O; Cba = N[C@@H](CC1CCC1)C(=O)O; S5 = C=CCCC[C@](C)(N)C(=O)O; βAla = NCCC(=O)O

In series [1] the test system is panel of cancer cell lines, p53 WT or p53 deficient (null, mutant, HPV infected). Format: cell-based. The settings on record: p53 WT vs p53 null/mutant/HPV. The source says:
Amongst the cell lines used, the following lines are amongst those listed as frequently misidentified by the International Cell Line Authentication Committee: HeLa, A549, HepG2, MCF-7,LoVo, SW48,.AsPC-1,HL-60, and MIA PaCa-2. These latter lines were used in order to employ a variety of lines represented diverse cancer types and that represented different p53 status (wild-type, mutant, null, and HPV infected). Imporantly, assay ready cells were used for these experiments and PCR analysis of target short tandem repeat (STR) markers was used to authenticate cell lines prior to cell banking. Cell viabilities were determined using the CellTiter-Glo® assay kit (Promega G7558). […] Assay plates were incubated at 37 °C, 5% CO2 overnight to allow cell attachment. Following day, compounds were dispensed into the assay plate using the Tecan HPD300 system and incubated at 37 °C, 5% CO2 for 120 h. At 120 h post dose, CellTiter-Glo assay was performed according to the manufacturer’s protocol. […] Staurosporine (Selleckchem S1421) was used as a positive control for the assay.

Series [2] is described as follows: Lactate dehydrogenase (LDH) release assay. Type of series: cell-based. A digest of the protocol: (§1)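 HCT116 cells stably carrying a p53-responsive β-lactamase reporter were seeded at 8000 cells per well with a final DMSO level of 0.5%. Membrane integrity was assessed by lactate dehydrogenase release using a homogeneous fluorometric kit. Values are geometric means of at least three biological replicates.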

Another series deals with HCT116 cells. The experiment in a line: Lactate dehydrogenase (LDH) release assay. Format: cell-based. A digest of the protocol: as §1
The nature of series [3]: Solubility assay (kinetic solubility, PBS pH 7). Format: physicochemical. To be noted: for solubility kinetic: pH 7, aqueous buffer, kinetic from dmso stock, read-out: Solubility. A digest of the protocol: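 Next, measure peak areas of sample and standard. Finally, multiply their ratio by the standard concentration to obtain solubility (µM).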
Series [4] can be described thus: Nanoclick permeability assay. The method, boiled down: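 Azido-peptide permeability was read as loss of NanoBRET signal (donor 450 nm, acceptor 610 nm) after adding NanoBret618-azide at 10 μM final.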
Series [5] in a line: physchem.
A short description of series [6]: Experimental LogD (partition coefficient). The settings on record: for logD: not stated, Partition Coeff LogD.
Another series concerns Ca Ski cell line. To be noted: 72 h. A digest of the protocol: (§2)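 Compound dilution series (10 points, 3-fold, 10 mM top stock in DMSO) tested on overnight-plated Ca Ski cells in RPMI1640/10% FBS and on blasticidin-selected p53RE-bla HCT-116 cells in McCoy's 5A; read-out was CellTiter-Glo 2.0 luminescence after room-temperature equilibration.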
Series [7] has as its system CellSensor p53RE-bla HCT-116 Cell Line. The settings on record: 72 h. A digest of the protocol:
as §2

A further series in a line: EPSA. Format: physicochemical. The settings on record: EPSA.
The next series can be described thus: in vitro. To be noted: human, HCT116 whole cell homogenates.
The conditions of series [8]: Fig S4.
Another series deals with T1, human Mdm2 1–125 (Homo sapiens, UniProt Q00987).
T1 construct: GST (N); His6 (internal); TEV cleavage site (ENLYFQG) (internal); made in house; host or cells: BL21 (DE3) Rosetta T1R Escherichia coli
T1 sequence (Q00987 with tags, fused parts or gaps): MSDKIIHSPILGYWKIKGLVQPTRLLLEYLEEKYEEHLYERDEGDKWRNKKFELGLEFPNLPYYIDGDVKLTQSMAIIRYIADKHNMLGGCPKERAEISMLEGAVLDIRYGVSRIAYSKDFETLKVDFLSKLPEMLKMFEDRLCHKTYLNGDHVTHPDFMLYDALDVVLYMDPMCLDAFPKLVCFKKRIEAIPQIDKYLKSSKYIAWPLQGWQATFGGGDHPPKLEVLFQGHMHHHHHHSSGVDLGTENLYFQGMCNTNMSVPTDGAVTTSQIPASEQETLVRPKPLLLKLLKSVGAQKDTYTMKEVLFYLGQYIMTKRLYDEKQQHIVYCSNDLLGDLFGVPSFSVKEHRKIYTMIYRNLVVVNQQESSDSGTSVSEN
The experiment in a line: Mdm2 binding by competitive fluorescence anisotropy assay (FP binding). To be noted: read-out: FP binding assay KD. (In general: Fluorescence polarisation rises when a labelled molecule tumbles more slowly, as on binding a larger partner.)

For series [9], the system named is p53 responsive β-lactamase reporter in HCT116 cells. Nature of the series: cells. Format: cell-based. To be noted: read-out: p53 reporter assay EC50. The method, boiled down:
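Read-out used the ToxBLAzer Dual Screen for β-lactamase driven by a stably integrated p53-responsive reporter. Assay: 8000 HCT116 cells per well at 0.5% final DMSO. Reported numbers are geometric means over a minimum of three biological replicates.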

For series [10], the system named is Jump-In T-REx CHO-K1 BLA cells. Nature of the series: cells. To be noted: for EC50: read-out: TETCHO: Counterscreen EC50. Format: cell-based.
A short description of series [11]: physchem. The source holds these as a separate data set.
Where [12] appears, read: Nanoclick permeability assay EC50.

`CC1CCC(Cn2c(N3CCO[C@@H]4CCC[C@H]43)nc3cc(-c4noc(=O)[nH]4)nc(-c4cncc(Cl)c4)c32)CC1` (some centres unmarked) [MK-4688, reference compound]: the “off-target proliferation effects in p53 deficient control lines” value in [1] was “significant off-target toxicities”.

For `CC(=O)N[C@@H](CCCCN=[N+]=[N-])C(=O)NCCC(=O)N[C@H]1CCCCNC(=O)CC[C@@H]2NC(=O)[C@@](C)(CCCCCCC=CCCC[C@@](C)(C(=O)N[C@@H](CO)C(=O)N[C@@H](C)C(=O)N[C@@H](C)C(N)=O)NC(=O)[C@H](CC3CCC3)NC(=O)[C@H](CCC(N)=O)NC(=O)[C@H](C)NC(=O)[C@H](Cc3c[nH]c4ccccc34)NC(=O)[C@H](Cc3ccc(O)cc3)NC2=O)NC(=O)[C@H](Cc2ccccc2)NC(=O)[C@H]([C@@H](C)O)NC1=O` [MP-002], the EC50 (commonly the concentration giving half of the maximal effect) in [2] (0% FBS 4Hr, read-out: LDH: Cytotoxicity assay: EC50) was above 50.7 µM; in series [2] (0% FBS 16Hr, read-out: LDH: Cytotoxicity assay: EC50), above 50.7 µM; in series [2] (10% FBS 4Hr, read-out: LDH: Cytotoxicity assay: EC50) it was above 50.7 µM; in series [2] (10% FBS 16Hr, read-out: LDH: Cytotoxicity assay: EC50), above 50.7 µM. Also, the “LDH: Cytotoxicity assay: % Effect” value with HCT116 cells (0% FBS 4Hr) is given as -7.169%; in the series on HCT116 cells (0% FBS 16Hr), 0.3781%; in the series with HCT116 cells (10% FBS 4Hr), -6.533%; with HCT116 cells (10% FBS 16Hr), -11.6%. Also, the Solubility entry in series [3] is “poor behavior”; in [3] (pH 7, PBS), “Poorly Behaved”. Moreover, the “off-target proliferation effects in p53 deficient control lines” value in series [1] was “remarkably devoid of off-target toxicity”. In series [4], the cell entry EC50 was determined as 0.462 µM. The EPSA in “physchem [5]” is 182 A^2. For the same molecule, the “Partition Coeff LogD” value in [6] is given as “Poorly Behaved”.

As to `CC(=O)N[C@@H](CCCCN=[N+]=[N-])C(=O)NCCC(=O)N[C@@H](CC(C)C)C(=O)N[C@H](C(=O)N[C@@H](Cc1ccccc1)C(=O)N[C@]1(C)CCCCCCC=CCCC[C@@](C)(C(=O)N[C@@H](C)C(=O)N[C@@H](C)C(=O)N[C@@H](C)C(=O)N[C@@H](C)C(=O)N[C@@H](C)C(=O)N[C@@H](C)C(N)=O)NC(=O)[C@H](CC2CCC2)NC(=O)[C@H](CCC(N)=O)NC(=O)[C@H](C)NC(=O)[C@H](Cc2c[nH]c3ccccc23)NC(=O)[C@H](Cc2ccc(O)cc2)NC(=O)[C@H](CCC(=O)O)NC1=O)[C@@H](C)O` [MP-032] (Ac-[Lys(N3)][βAla]LTF[R8]EYWAQ[Cba][S5]AAAAAA-NH2; staple 6-13), the EC50 in series [2] (LDH: Cytotoxicity assay: EC50) is above 50.7 µM; in the series with Ca Ski cell line, 26.6 µM; in series [7] it was 0.96 µM. Besides, the Solubility entry is on record as “P.B” in [3] and “Poorly Behaved” in series [3] (pH 7, PBS). For the same molecule, the cell entry EC50 in series [4] (setting [12]) was found to be 0.708 µM. In the series “EPSA”, this molecule came in with an EPSA of 194 A^2. Moreover, the half-life – broadly, the time in which the quantity being followed falls by half – at 1 μM in “in vitro” came out at 0.5 h. The “Partition Coeff LogD” value in series [6] is listed as “Poorly Behaved”.

Regarding `CC(=O)N[C@@H](CCCCN=[N+]=[N-])C(=O)NCCC(=O)N[C@@H](CC(C)C)C(=O)N[C@H](C(=O)N[C@@H](Cc1ccccc1)C(=O)N[C@]1(C)CCCCCCC=CCCC[C@@](C)(C(=O)N[C@@H](C)C(=O)N[C@@H](C)C(=O)N[C@@H](C)C(=O)N[C@@H](C)C(=O)N[C@@H](C)C(=O)N[C@H](C)C(N)=O)NC(=O)[C@H](CC2CCC2)NC(=O)[C@H](CCC(N)=O)NC(=O)[C@H](C)NC(=O)[C@H](Cc2c[nH]c3ccccc23)NC(=O)[C@H](Cc2ccc(O)cc2)NC(=O)[C@H](CCC(=O)O)NC1=O)[C@@H](C)O` [MP-464] (Ac-[Lys(N3)][βAla]LTF[R8]EYWAQ[Cba][S5]AAAAA[dA]-NH2; staple 6-13), the EC50 in series [2] (LDH: Cytotoxicity assay: EC50) is above 50.7 µM; with Ca Ski cell line, above 49.8 µM; in series [7], 0.42 µM. Further, in [3] (pH 7, PBS), the solubility kinetic was found to be 157 µM (≈ 340 µg/mL). The cell entry EC50 in series [4] (setting [12]) turned out to be 4.19 µM. This molecule had an EPSA in “EPSA” of 194 A^2. Moreover, the “stability in serum plasma” value in series [8] was “highly stable”. In “in vitro”, this molecule displayed a half-life at 1 μM of 1.53 h.

As to `CC(=O)N[C@@H](CO)C(=O)NCC(=O)N[C@@H](CO)C(=O)N[C@H](C(=O)N[C@@H](CO)C(=O)N[C@@H](Cc1ccccc1)C(=O)N[C@]1(C)CCCCCCC=CCCC[C@@](C)(C(N)=O)NC(=O)[C@H](CC(C)C)NC(=O)[C@H](CC(C)C)NC(=O)[C@H](C)NC(=O)[C@H](Cc2c[nH]c3ccccc23)NC(=O)[C@H](Cc2ccc(O)cc2)NC(=O)[C@H](CCC(=O)O)NC1=O)[C@@H](C)O` [MP-654], at human Mdm2 1–125, the Kd (as a rule, the free concentration of one partner at which half of the binding sites on the other are occupied at equilibrium, for simple one-to-one binding) turned out to be 0.00586 µM. The EC50 in [9] (0% FBS 4Hr) was 10.2 µM; in series [9] (0% FBS 16Hr), 13.8 µM; in series [2] (LDH: Cytotoxicity assay EC50) it was above 50 µM; in series [10] (0% FBS 4Hr) it was above 50.6 µM; in series [10] (0% FBS 16Hr), above 50 µM. Further, the “TETCHO: Counterscreen % Effect” value in series [10] (0% FBS 4Hr) amounted to 1.563%; in series [10] (0% FBS 16Hr), 3.969%. Moreover, in series [3] (pH 7, PBS), the solubility kinetic was 23 µM (≈ 39 µg/mL). The molecule also had an EPSA in the series “physchem [11]” of 217 A^2. For the same molecule, in [6], the logD (in general, the decadic logarithm of the distribution of all forms, ionised or not, between an organic phase and buffer at a given pH) is 2.3.

On to `CC(=O)N[C@@H](CCCCN=[N+]=[N-])C(=O)N[C@H](C(=O)N[C@@H](CO)C(=O)N[C@@H](Cc1ccccc1)C(=O)N[C@]1(C)CCCCCCC=CCCC[C@@](C)(C(=O)N[C@@H](CO)C(=O)N[C@@H](C)C(=O)N[C@@H](C)C(N)=O)NC(=O)[C@H](CC2CCC2)NC(=O)[C@H](CCC(N)=O)NC(=O)[C@H](C)NC(=O)[C@H](Cc2c[nH]c3ccccc23)NC(=O)[C@H](Cc2ccc(O)cc2)NC(=O)[C@H](C)NC1=O)[C@@H](C)O` [MP-703] (Ac-[Lys(N3)]TSF[R8]AYWAQ[Cba][S5]SAA-NH2; staple 5-12), for which the half-maximal effective concentration (EC50) in [9] (0% FBS 4Hr) was 0.302 µM; in series [9] (0% FBS 16Hr), 0.87 µM; in series [2] (LDH: Cytotoxicity assay EC50) it was above 50 µM; in series [10] (0% FBS 4Hr), above 50.6 µM. Moreover, the “TETCHO: Counterscreen % Effect” value in [10] (0% FBS 4Hr) came out at 32.8%. Besides, the Solubility entry in series [3] (pH 7, PBS) is listed as “Poorly Behaved”. In the series “physchem [11]”, this molecule had an EPSA of 178 A^2. For the same molecule, the “Partition Coeff LogD” value in [6] is listed as “Poorly Behaved”.

Take `CC(=O)N[C@@H](CCCCN=[N+]=[N-])C(=O)NCCC(=O)N[C@@H](CC(C)C)C(=O)N[C@H](C(=O)N[C@@H](Cc1ccccc1)C(=O)N[C@]1(C)CCCCCCC=CCCC[C@@](C)(C(=O)N[C@@H](CO)C(=O)N[C@@H](C)C(=O)N[C@@H](C)C(N)=O)NC(=O)[C@H](CC2CCC2)NC(=O)[C@H](CCC(N)=O)NC(=O)[C@H](C)NC(=O)[C@H](Cc2c[nH]c3ccccc23)NC(=O)[C@H](Cc2ccc(O)cc2)NC(=O)[C@H](CCCCNC(=N)N)NC1=O)[C@@H](C)O` [MP-6898] (Ac-[Lys(N3)][βAla]LTF[R8][hArg]YWAQ[Cba][S5]SAA-NH2; staple 6-13): the response in series [2] (LDH: Cytotoxicity assay EC50) was half-maximal at 12.4 µM (EC50). In series [3] (pH 7, PBS), the solubility kinetic was determined as 2 µM (≈ 4.02 µg/mL). Further, the cell entry EC50 in series [4] (setting [12]) amounted to 2.12 µM. Also, in the series “physchem [11]”, the EPSA was 181 A^2. The same molecule came in with a logD in [6] of 3.21.
